Data reported in US20190116792A1 (Dow Global Technologies LLC, priority 2016, published 2019).

System: Chlorella sp.
Experiment: Algal efficacy testing of dry paint film coupons (modified ASTM 5589, 6-well plates)
Format: cell-based, Chlorella sp. ATCC 7516
Conditions: for Total conc, ppm (concentration giving pass level ≥ 75% inhibition): total active ingredient in acrylic/silicone paint, dry film coupon, used as minimum inhibitory concentration for SI
Experimental: These paints were then diluted with a biocide free acrylic/silicone based paint and mixed to prepare targeted concentrations of biocide combinations for the testing. The total biocides concentrations obtained were 125, 250, 500, 1000, 2000 and 5000 ppm. After biocides addition or dilution, the paints were mixed 90 seconds with the horse power shaker (AXEL 75M3372/Agitateur SO-10MI) until uniformity was achieved. […] After one day, the paints were applied to Schleicher & Schuell filter paper at 280 μm wet film thickness and dried for 3 days at room temperature avoiding direct exposure to sunlight. Square discs (1.8 cm×1.8 cm) were cut out from each panel and were used as the substrate for algal efficacy tests. This sample size allowed for an agar border when the sample disc was placed into the well of the test plate.
Algal efficacy was tested according to modified ASTM 5589 which is a standard accelerated test method for determining resistance of various coatings (including paints) to algal defacement. To accommodate for high-throughput screening, this method was scaled down from petri plates to 6-well plates. Bold Modified Basal Freshwater Nutrient Solution was used as growth medium for the algal culture and Bold's agar was used for the efficacy testing. A single coupon was placed with a pair of sterile forceps at the center of the agar plug (on top) with the painted surface facing upwards. The algal inoculum was prepared by diluting an exponentially growing culture of Chlorella sp. to 1×10^6 cfu/ml.
Each well that contains a tested coupon was inoculated with 1750 μl of algal suspension (1×10^6 cfu/ml) making sure that the whole surface (paint film as well as the agar surrounding it) was evenly covered. The plates were incubated at room temp (21° C.-25° C.) with cyclic exposure to 14 hours fluorescent light followed by 10 hours darkness, for a period of three weeks.
At the end of the incubation period the samples were scored for percent inhibition regarding color intensity compared to the blank sample
The SI is calculated based on F. C. Kull et.
SI=Qa/QA+Qb/QB • Qa=the concentration of Antimicrobial A in the blend • QA=the concentration of Antimicrobial A as the only biocide • Qb=the concentration of Antimicrobial B in the blend • QB=the concentration of Antimicrobial B as the only antimicrobial
SI value of <1 in the formula indicates a synergism of the blended biocides exists.
The minimal targeted inhibition was set at 75%, meaning a coupon with at least 75% algal growth inhibition was considered as a pass.

Compound	inhibition at 1000 ppm (504 h) [%]	Total conc, ppm (concentration giving pass level ≥ 75% inhibition) (three weeks)	inhibition at 10000 ppm (504 h, total conc 10000 ppm in paint, three weeks, color intensity vs blank) [%]
O=c1[nH]c2c(c(=O)n1C1CCCCC1)CCC2 [Lenacil, 3-Cyclohexyl-6,7-dihydro-1H-cyclopentapyrimidine-2,4-(3H,5H)-dione]	90	1,000 ppm	–
c1ccc2[nH]c(-c3cscn3)nc2c1 [Thiabendazole, 4-(1H-1,3-benzodiazol-2-yl)-1,3-thiazole]	–	10000 ppm	75
